Measured values as given in the kinase profiling compilation of Christmann-Franck et al. (2016).

Key:
Test in all cases: radiometric filter-binding kinase assay, Kinase HotSpot
Settings in all cases: compound 0.5 µM; ATP 10 µM
MINK1 (human) = MINK1 (human) (UniProt Q8N4C8)
MAP3K2 (human) = MAP3K2 (human) (UniProt Q9Y2U5)
ROS1 (human) = ROS1 (human) (UniProt P08922)
FES (human) = FES (human) (UniProt P07332)
SRMS (human) = SRMS (human) (UniProt Q9H3Y6)
CDK1 CCNA2 (human) = CDK1 CCNA2 (human) (UniProt P06493+P20248)
Sequence of CDK1 CCNA2 (human) (P06493 whole entry, looked up): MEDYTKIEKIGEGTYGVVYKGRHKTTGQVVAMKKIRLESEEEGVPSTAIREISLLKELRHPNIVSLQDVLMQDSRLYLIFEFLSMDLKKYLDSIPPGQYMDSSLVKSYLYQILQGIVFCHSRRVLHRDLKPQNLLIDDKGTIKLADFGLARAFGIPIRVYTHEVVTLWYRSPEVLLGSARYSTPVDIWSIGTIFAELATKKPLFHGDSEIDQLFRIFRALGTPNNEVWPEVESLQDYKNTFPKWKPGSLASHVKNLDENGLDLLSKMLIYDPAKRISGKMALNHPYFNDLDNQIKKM
Sequence of CDK1 CCNA2 (human) (P20248 whole entry, looked up): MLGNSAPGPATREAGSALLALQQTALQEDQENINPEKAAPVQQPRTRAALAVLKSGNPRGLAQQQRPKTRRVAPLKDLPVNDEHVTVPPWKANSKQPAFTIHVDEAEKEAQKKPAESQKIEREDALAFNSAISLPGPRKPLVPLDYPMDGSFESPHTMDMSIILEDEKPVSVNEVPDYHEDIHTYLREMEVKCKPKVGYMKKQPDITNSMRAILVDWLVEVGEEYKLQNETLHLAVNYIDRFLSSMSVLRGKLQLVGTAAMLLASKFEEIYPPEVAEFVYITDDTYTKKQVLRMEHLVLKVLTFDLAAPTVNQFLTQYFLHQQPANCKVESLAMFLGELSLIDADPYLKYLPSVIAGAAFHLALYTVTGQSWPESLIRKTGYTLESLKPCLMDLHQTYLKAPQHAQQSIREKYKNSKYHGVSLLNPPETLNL

INSRR (human) = INSRR (human) (UniProt P14616)
NUAK1 (human) = NUAK1 (human) (UniProt O60285)
PAK2 (human) = PAK2 (human) (UniProt Q13177)
PRKX (human) = PRKX (human) (UniProt P51817)
[1] = test system: MAP2K6 (human), P52564 [S207E/T211E]
EPHA4 (human) = EPHA4 (human) (UniProt P54764)
DYRK4 (human) = DYRK4 (human) (UniProt Q9NR20)
EPHA2 (human) = EPHA2 (human) (UniProt P29317)
PRKCB1 (human) = PRKCB1 (human) (UniProt P05771)
Sequence of PRKCB1 (human) (P05771 whole entry, looked up): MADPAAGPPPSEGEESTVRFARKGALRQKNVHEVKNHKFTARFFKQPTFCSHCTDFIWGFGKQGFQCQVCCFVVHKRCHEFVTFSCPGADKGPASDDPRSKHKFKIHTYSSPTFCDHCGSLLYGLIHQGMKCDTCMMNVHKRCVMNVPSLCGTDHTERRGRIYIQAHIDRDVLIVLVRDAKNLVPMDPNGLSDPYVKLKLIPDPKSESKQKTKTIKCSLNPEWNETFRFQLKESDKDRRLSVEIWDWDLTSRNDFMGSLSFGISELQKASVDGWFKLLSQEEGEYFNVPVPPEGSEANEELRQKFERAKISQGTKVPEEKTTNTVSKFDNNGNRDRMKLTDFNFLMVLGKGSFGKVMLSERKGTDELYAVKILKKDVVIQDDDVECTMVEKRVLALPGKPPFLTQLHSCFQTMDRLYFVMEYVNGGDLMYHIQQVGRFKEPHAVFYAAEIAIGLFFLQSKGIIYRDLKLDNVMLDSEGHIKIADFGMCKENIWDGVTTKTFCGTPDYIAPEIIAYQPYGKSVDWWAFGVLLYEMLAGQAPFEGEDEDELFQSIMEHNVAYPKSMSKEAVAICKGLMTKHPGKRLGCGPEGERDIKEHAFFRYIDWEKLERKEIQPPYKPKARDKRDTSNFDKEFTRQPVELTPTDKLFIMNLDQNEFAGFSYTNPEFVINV

MAP4K4 (human) = MAP4K4 (human) (UniProt O95819)
WNK3 (human) = WNK3 (human) (UniProt Q9BYP7)
PRKG2 (human) = PRKG2 (human) (UniProt Q13237)
MAPK13 (human) = MAPK13 (human) (UniProt O15264)
PRKCI (human) = PRKCI (human) (UniProt P41743)
STK10 (human) = STK10 (human) (UniProt O94804)
MERTK (human) = MERTK (human) (UniProt Q12866)
LTK (human) = LTK (human) (UniProt P29376)
Sequence of LTK (human) (P29376 whole entry, looked up): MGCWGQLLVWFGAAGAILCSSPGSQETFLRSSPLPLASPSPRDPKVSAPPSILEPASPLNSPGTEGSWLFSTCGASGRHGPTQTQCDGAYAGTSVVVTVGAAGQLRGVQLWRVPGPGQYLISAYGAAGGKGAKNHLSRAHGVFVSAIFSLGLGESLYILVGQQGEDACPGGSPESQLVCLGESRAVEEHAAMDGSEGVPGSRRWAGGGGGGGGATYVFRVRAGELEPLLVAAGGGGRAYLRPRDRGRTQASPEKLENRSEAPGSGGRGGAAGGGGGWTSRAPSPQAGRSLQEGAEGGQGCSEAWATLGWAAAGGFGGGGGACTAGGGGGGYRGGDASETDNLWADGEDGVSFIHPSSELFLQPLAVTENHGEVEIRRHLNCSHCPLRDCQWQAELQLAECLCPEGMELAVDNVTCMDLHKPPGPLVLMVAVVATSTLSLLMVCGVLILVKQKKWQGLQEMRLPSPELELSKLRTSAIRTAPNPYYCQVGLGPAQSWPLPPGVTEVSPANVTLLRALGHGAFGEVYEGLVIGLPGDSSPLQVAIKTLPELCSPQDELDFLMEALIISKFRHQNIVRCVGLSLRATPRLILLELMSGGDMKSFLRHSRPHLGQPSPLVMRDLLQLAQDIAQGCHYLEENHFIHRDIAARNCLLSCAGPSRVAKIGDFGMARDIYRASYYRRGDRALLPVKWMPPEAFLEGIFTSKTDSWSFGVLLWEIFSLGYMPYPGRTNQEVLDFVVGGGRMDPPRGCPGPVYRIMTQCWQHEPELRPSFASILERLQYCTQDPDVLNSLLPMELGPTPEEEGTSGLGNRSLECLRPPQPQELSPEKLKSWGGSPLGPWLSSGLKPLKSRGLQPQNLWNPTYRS

CLK3 (human) = CLK3 (human) (UniProt P49761)
MELK (human) = MELK (human) (UniProt Q14680)
MUSK (human) = MUSK (human) (UniProt O15146)
Sequence of MUSK (human) (O15146 whole entry, looked up): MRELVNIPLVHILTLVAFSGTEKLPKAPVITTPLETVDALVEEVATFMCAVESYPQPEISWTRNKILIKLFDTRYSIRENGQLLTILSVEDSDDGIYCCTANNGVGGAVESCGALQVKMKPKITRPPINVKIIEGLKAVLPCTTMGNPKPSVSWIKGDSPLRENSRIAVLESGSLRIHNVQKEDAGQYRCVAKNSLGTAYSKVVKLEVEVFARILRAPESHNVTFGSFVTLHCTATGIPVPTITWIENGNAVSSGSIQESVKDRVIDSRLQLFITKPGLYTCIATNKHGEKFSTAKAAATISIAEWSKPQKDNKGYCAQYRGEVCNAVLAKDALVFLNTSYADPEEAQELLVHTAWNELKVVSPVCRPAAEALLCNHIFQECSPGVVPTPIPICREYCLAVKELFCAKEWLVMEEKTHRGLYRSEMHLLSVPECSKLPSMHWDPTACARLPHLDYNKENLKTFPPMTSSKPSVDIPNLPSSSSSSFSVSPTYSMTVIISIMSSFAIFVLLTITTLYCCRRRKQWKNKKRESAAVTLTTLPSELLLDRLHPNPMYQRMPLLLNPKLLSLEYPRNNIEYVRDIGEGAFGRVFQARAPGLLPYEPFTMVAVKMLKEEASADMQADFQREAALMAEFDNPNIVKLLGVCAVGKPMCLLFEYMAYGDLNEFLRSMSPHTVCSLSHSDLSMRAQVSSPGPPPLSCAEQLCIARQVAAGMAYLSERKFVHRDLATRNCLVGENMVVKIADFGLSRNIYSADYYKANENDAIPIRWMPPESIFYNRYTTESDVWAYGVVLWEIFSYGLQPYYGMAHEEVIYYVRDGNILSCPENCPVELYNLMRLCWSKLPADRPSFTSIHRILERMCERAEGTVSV

PLK1 (human) = PLK1 (human) (UniProt P53350)
GSK3B (human) = GSK3B (human) (UniProt P49841)
MKNK2 (human) = MKNK2 (human) (UniProt Q9HBH9)
Sequence of MKNK2 (human) (Q9HBH9 whole entry, looked up): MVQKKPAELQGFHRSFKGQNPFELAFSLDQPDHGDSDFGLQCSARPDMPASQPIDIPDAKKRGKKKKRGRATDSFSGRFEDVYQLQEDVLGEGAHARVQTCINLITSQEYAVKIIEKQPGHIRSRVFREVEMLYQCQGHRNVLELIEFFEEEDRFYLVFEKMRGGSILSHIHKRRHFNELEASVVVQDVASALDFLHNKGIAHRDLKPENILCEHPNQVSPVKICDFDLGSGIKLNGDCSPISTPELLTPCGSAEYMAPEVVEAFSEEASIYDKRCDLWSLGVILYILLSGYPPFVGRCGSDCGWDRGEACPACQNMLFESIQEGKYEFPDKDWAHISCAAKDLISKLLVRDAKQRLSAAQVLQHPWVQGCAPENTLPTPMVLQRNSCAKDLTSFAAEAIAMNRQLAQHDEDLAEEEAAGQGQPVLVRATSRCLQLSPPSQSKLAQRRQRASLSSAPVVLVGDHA

FGFR4 (human) = FGFR4 (human) (UniProt P22455)
PIM2 (human) = PIM2 (human) (UniProt Q9P1W9)
ACVR1 (human) = ACVR1 (human) (UniProt Q04771)
CSF1R (human) = CSF1R (human) (UniProt P07333)
CAMK2B (human) = CAMK2B (human) (UniProt Q13554)
Sequence of CAMK2B (human) (Q13554 whole entry, looked up): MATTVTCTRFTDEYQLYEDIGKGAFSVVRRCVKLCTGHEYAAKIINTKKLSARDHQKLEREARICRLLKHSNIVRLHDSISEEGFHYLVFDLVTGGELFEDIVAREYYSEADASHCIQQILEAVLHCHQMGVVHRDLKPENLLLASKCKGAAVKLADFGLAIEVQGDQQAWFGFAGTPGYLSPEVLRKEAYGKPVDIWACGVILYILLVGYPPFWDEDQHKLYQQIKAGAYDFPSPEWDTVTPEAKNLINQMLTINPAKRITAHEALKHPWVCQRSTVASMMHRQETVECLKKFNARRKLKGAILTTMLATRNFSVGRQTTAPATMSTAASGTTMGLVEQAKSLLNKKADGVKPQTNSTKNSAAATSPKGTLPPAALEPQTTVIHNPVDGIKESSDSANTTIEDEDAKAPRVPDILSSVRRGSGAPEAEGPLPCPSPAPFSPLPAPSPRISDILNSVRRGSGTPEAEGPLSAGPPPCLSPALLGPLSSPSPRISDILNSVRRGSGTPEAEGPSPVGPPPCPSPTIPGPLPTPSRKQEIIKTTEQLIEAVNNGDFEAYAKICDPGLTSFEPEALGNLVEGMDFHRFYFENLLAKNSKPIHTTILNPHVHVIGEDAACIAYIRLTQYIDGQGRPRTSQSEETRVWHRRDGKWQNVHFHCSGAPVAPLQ

PLK3 (human) = PLK3 (human) (UniProt Q9H4B4)
HCK (human) = HCK (human) (UniProt P08631)
EPHA8 (human) = EPHA8 (human) (UniProt P29322)
DDR2 (human) = DDR2 (human) (UniProt Q16832)
TGFBR2 (human) = TGFBR2 (human) (UniProt P37173)
Sequence of TGFBR2 (human) (P37173 whole entry, looked up): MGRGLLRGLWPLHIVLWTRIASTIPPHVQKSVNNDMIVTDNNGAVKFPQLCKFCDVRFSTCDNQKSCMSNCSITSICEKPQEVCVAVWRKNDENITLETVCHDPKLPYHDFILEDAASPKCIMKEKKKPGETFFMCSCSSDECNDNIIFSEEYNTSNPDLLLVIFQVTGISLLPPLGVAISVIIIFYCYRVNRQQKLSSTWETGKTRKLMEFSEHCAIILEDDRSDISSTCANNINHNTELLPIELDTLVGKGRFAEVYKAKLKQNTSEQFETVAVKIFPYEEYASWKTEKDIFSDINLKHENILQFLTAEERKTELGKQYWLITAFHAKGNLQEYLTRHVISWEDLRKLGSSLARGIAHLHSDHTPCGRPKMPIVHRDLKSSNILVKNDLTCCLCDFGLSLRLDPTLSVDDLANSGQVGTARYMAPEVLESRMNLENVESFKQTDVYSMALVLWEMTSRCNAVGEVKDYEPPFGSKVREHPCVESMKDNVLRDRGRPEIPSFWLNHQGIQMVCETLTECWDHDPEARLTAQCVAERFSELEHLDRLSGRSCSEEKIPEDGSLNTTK

HIPK1 (human) = HIPK1 (human) (UniProt Q86Z02)
CHEK2 (human) = CHEK2 (human) (UniProt O96017)
PHKG1 (human) = PHKG1 (human) (UniProt Q16816)

## CS(=O)(=O)CCNCc1ccc(-c2ccc3ncnc(Nc4ccc(OCc5cccc(F)c5)c(Cl)c4)c3c2)o1
MINK1 (human)
  residual activity: 111%
MAP3K2 (human)
  residual activity: 123%
ROS1 (human)
  residual activity: 107%
FES (human)
  residual activity: 104%
SRMS (human)
  residual activity: 97.9%
CDK1 CCNA2 (human)
  residual activity: 101%
INSRR (human)
  residual activity: 104%
NUAK1 (human)
  residual activity: 108%
PAK2 (human)
  residual activity: 102%
PRKX (human)
  residual activity: 111%
[1]
  residual activity: 95.4%
EPHA4 (human)
  residual activity: 101%
DYRK4 (human)
  residual activity: 103%
EPHA2 (human)
  residual activity: 99%
PRKCB1 (human)
  residual activity: 93.5%
MAP4K4 (human)
  residual activity: 111%
WNK3 (human)
  residual activity: 104%
PRKG2 (human)
  residual activity: 107%
MAPK13 (human)
  residual activity: 91.1%
PRKCI (human)
  residual activity: 106%
STK10 (human)
  residual activity: 94.8%
MERTK (human)
  residual activity: 95.4%
LTK (human)
  residual activity: 100%
CLK3 (human)
  residual activity: 107%
MELK (human)
  residual activity: 88.5%
MUSK (human)
  residual activity: 96.5%
PLK1 (human)
  residual activity: 99%
GSK3B (human)
  residual activity: 103%
MKNK2 (human)
  residual activity: 97.3%
FGFR4 (human)
  residual activity: 96.6%
PIM2 (human)
  residual activity: 102%
ACVR1 (human)
  residual activity: 106%
CSF1R (human)
  residual activity: 106%
CAMK2B (human)
  residual activity: 93.8%
PLK3 (human)
  residual activity: 105%
HCK (human)
  residual activity: 86.5%
EPHA8 (human)
  residual activity: 99.5%
DDR2 (human)
  residual activity: 107%
TGFBR2 (human)
  residual activity: 96.1%
HIPK1 (human)
  residual activity: 97.1%
CHEK2 (human)
  residual activity: 96.8%
PHKG1 (human)
  residual activity: 95.7%

## O=C1Nc2ccc(Br)cc2/C1=C\c1cc2c([nH]1)CCCC2
MINK1 (human)
  residual activity: 26.4%
MAP3K2 (human)
  residual activity: 93.6%
ROS1 (human)
  residual activity: 98.6%
FES (human)
  residual activity: 83.8%
SRMS (human)
  residual activity: 104%
CDK1 CCNA2 (human)
  residual activity: 96.3%
INSRR (human)
  residual activity: 94.8%
NUAK1 (human)
  residual activity: 27.7%
PAK2 (human)
  residual activity: 90%
PRKX (human)
  residual activity: 97.2%
[1]
  residual activity: 110%
EPHA4 (human)
  residual activity: 94.8%
DYRK4 (human)
  residual activity: 102%
EPHA2 (human)
  residual activity: 110%
PRKCB1 (human)
  residual activity: 97.4%
MAP4K4 (human)
  residual activity: 6.84%
WNK3 (human)
  residual activity: 93.8%
PRKG2 (human)
  residual activity: 92.4%
MAPK13 (human)
  residual activity: 100%
PRKCI (human)
  residual activity: 92%
STK10 (human)
  residual activity: 65.5%
MERTK (human)
  residual activity: 81.2%
LTK (human)
  residual activity: 70.6%
CLK3 (human)
  residual activity: 101%
MELK (human)
  residual activity: 75.6%
MUSK (human)
  residual activity: 88.6%
PLK1 (human)
  residual activity: 102%
GSK3B (human)
  residual activity: 94.1%
MKNK2 (human)
  residual activity: 87.1%
FGFR4 (human)
  residual activity: 77%
PIM2 (human)
  residual activity: 100%
ACVR1 (human)
  residual activity: 97%
CSF1R (human)
  residual activity: 49.7%
CAMK2B (human)
  residual activity: 85.8%
PLK3 (human)
  residual activity: 97.8%
HCK (human)
  residual activity: 88.5%
EPHA8 (human)
  residual activity: 94.5%
DDR2 (human)
  residual activity: 101%
TGFBR2 (human)
  residual activity: 101%
HIPK1 (human)
  residual activity: 97.2%
CHEK2 (human)
  residual activity: 68.2%
PHKG1 (human)
  residual activity: 60.2%

## O=C1C(Cl)=C(N2C(=O)CCC2=O)C(=O)c2ccccc21
MINK1 (human)
  residual activity: 95.6%
MAP3K2 (human)
  residual activity: 108%
ROS1 (human)
  residual activity: 95.8%
FES (human)
  residual activity: 97.5%
SRMS (human)
  residual activity: 108%
CDK1 CCNA2 (human)
  residual activity: 99.8%
INSRR (human)
  residual activity: 96.9%
NUAK1 (human)
  residual activity: 105%
PAK2 (human)
  residual activity: 104%
PRKX (human)
  residual activity: 103%
[1]
  residual activity: 107%
EPHA4 (human)
  residual activity: 101%
DYRK4 (human)
  residual activity: 94.1%
EPHA2 (human)
  residual activity: 107%
PRKCB1 (human)
  residual activity: 92.1%
MAP4K4 (human)
  residual activity: 93.7%
WNK3 (human)
  residual activity: 96.4%
PRKG2 (human)
  residual activity: 114%
MAPK13 (human)
  residual activity: 106%
PRKCI (human)
  residual activity: 96.6%
MERTK (human)
  residual activity: 90.3%
LTK (human)
  residual activity: 100%
CLK3 (human)
  residual activity: 114%
MELK (human)
  residual activity: 96.4%
MUSK (human)
  residual activity: 104%
PLK1 (human)
  residual activity: 97.6%
GSK3B (human)
  residual activity: 100%
MKNK2 (human)
  residual activity: 84.5%
FGFR4 (human)
  residual activity: 105%
PIM2 (human)
  residual activity: 123%
ACVR1 (human)
  residual activity: 96.9%
CSF1R (human)
  residual activity: 102%
CAMK2B (human)
  residual activity: 106%
PLK3 (human)
  residual activity: 96.6%
HCK (human)
  residual activity: 94.2%
EPHA8 (human)
  residual activity: 107%
DDR2 (human)
  residual activity: 95.8%
TGFBR2 (human)
  residual activity: 130%
HIPK1 (human)
  residual activity: 104%
CHEK2 (human)
  residual activity: 95.7%
PHKG1 (human)
  residual activity: 96.5%

## CN(C)S(=O)(=O)c1ccc2c(c1)/C(=C/c1cc3c([nH]1)CCCC3)C(=O)N2
MINK1 (human)
  residual activity: 83.8%
MAP3K2 (human)
  residual activity: 37%
ROS1 (human)
  residual activity: 83.3%
FES (human)
  residual activity: 76.9%
SRMS (human)
  residual activity: 104%
CDK1 CCNA2 (human)
  residual activity: 70.6%
INSRR (human)
  residual activity: 93.3%
NUAK1 (human)
  residual activity: 10.9%
PAK2 (human)
  residual activity: 92.5%
PRKX (human)
  residual activity: 98.1%
[1]
  residual activity: 94.6%
EPHA4 (human)
  residual activity: 91.3%
DYRK4 (human)
  residual activity: 98.2%
EPHA2 (human)
  residual activity: 96.5%
PRKCB1 (human)
  residual activity: 106%
MAP4K4 (human)
  residual activity: 46.1%
WNK3 (human)
  residual activity: 96.5%
PRKG2 (human)
  residual activity: 95.9%
MAPK13 (human)
  residual activity: 103%
PRKCI (human)
  residual activity: 95.9%
STK10 (human)
  residual activity: 9.53%
MERTK (human)
  residual activity: 20.9%
LTK (human)
  residual activity: 52.7%
CLK3 (human)
  residual activity: 92.9%
MELK (human)
  residual activity: 89.1%
MUSK (human)
  residual activity: 82.8%
PLK1 (human)
  residual activity: 101%
GSK3B (human)
  residual activity: 95.6%
MKNK2 (human)
  residual activity: 84.1%
FGFR4 (human)
  residual activity: 92.9%
PIM2 (human)
  residual activity: 108%
ACVR1 (human)
  residual activity: 98.6%
CSF1R (human)
  residual activity: 37.2%
CAMK2B (human)
  residual activity: 70%
PLK3 (human)
  residual activity: 94.5%
HCK (human)
  residual activity: 31.6%
EPHA8 (human)
  residual activity: 100%
TGFBR2 (human)
  residual activity: 129%
CHEK2 (human)
  residual activity: 46.1%
PHKG1 (human)
  residual activity: 72.4%
